| SMILES | melting point [°C] |
| --- | --- |
| O=C1c2cccc3cccc(c23)C(O)N1CCN1CCN(c2ccccn2)CC1 (centres undefined) | 174 to 175 |
| COC(=O)c1nc(Cl)nc(N)c1Cl | 164 to 166 |
| Cc1oc(-c2ccccc2)nc1C=Cc1ccc(/C=C/C=O)cc1 | 191 to 192 |
| COC1OCC[C@@H]1NC(=O)CN(CC(C)C)C(=O)CNC(=O)COc1ccc2c(c1)Nc1ccccc1S2 (some centres undefined) | 162 to 164 |
| CC1(C)CC(N2CCCC2)=CC(=C(C#N)C(O)C#N)C1 (centres undefined) | 246 to 247 |
| CCc1cn2c(N)c(Cl)cc(C(=O)NCC3CCN(CC4(O)CCOCC4)CC3)c2n1 | 229 |
| CCCCCCCCCCCCOC(=O)NCCC(=O)O | 88 to 90 |
| CS(=O)(=O)N1CCC(NC(=O)OCc2ccccc2)CC1 | 149 to 153 |
| CCOC(=O)c1cc2c(cn1)[nH]c1ccc(N)cc12 | 226 to 228 |
| Cc1nc(N2CCc3ccccc3CC2)c(C#N)c(=O)n1OCC(F)(F)F | > 200 |
| O=Cc1cc(Cl)ccc1Oc1ccccc1[N+](=O)[O-] | 103 to 105 |
| CCN1C(=O)C(=CC=C2C=C(c3ccccc3)C=C3N2c2ccccc2C3(C)C)SC1=S | 270 to 272 |
| COc1ccc(Cc2nnc3c4ccccc4c(Nc4cccc(-c5nnn(C)n5)c4)nn23)cc1 | 262 to 264 |
| CCCCc1nc2c(N)nc3cc(-c4ccc(C(C)(C)C)cc4)ccc3c2n1CC(C)C | 219 to 220 |
| CCCCN(CCCC)C(=O)Cc1ccccc1Nc1c(Cl)cccc1Cl | 66 to 68 |
| CCCOc1ccc(S(=O)(=O)N2CC(CN(C)C)C2)cc1-c1nc2c([nH]1)c1nncn1c(=O)n2CCC | 172 |
| COC(=O)Nc1nc(C)c(-c2nc3ccccc3c(=O)n2-c2cccc(C)c2)s1 | 232 to 233 |
| COC(=O)C1C(=O)NC(C)C1c1c(Cl)cccc1Cl (centres undefined) | 157 to 158 |
| Cc1nc2c(-c3cccc(N4CCC(N5CCCC5)CC4)c3)cnn2c(N)c1-c1cccc(Cl)c1 | 188 to 193 |
| N#CN1CCC(Oc2c(F)c(F)c(F)c(F)c2F)(c2ccccc2)CC1 | 117 to 120 |
| COc1cc(C(C)O)ccc1OCCCC1CNCCC1C(c1ccc(F)cc1)c1ccc(F)cc1 (centres undefined) | 132 to 135 |
| COC(=O)c1c(SCc2ccc(OC)cc2)nc(-c2ccccc2)n1Cc1cc2c(cc1Cl)OCO2 | 158 |
| N=C(N)Nc1nc(CO)cs1 | 163 to 165 |
| O=C1CCCCC1n1nc(-c2c(-c3ccccc3)nn3ccccc23)ccc1=O (centres undefined) | 166 to 168 |
| Cn1c(COc2ccc(C(C)(CCC(=O)O)c3ccc(OCc4nc5ccccc5n4C)cc3)cc2)nc2ccccc21 | 110 to 112 |

| SMILES | melting point [°C] |
| --- | --- |
| CCOC(=O)COc1cc(F)c(C)cc1C(=S)NCc1ccc(Br)cc1F | 98 to 100 |
| O=c1[nH]c2cscc2c(=O)n1CCN1CCN(c2ccccc2)CC1 | > 250 |
| CNS(=O)(=O)c1ccc(C(=O)C=Cc2cc(-c3cc4ccccc4n3C)c(OC)cc2OC)cc1 | 129 to 131 |
| O=C(Nc1ccc2ccc(-c3ccccc3)nc2n1)c1cccc(Cl)c1 | 175 |
| COc1ccc(CCNC(=O)C=Cc2ccc(C)cc2C)cc1S(N)(=O)=O | 202 |
| Cc1noc(C)c1-c1ccc(F)cc1OC1SCC(O)C(O)C1O (centres undefined) | 192 |
| CN(O)C(=O)NCCc1ccc2c(c1)OCCO2 | 94 to 95 |
| COC(=O)Cc1cc(C(C)=O)ccc1OCc1ccccc1 | 85 to 87 |
| Cc1cc(C)cc(-c2cnn3c(-c4cccc(-c5nnn(CC6CCC6)n5)c4)ccnc23)c1 | 64 |
| CCC1(CC)CN(C2CC3(C)C(CCC4C5CCC(C(C)=O)C5(C)CC(=O)C43)CC2O)CCO1 (centres undefined) | 177 to 179 |
| CN1C=C(C(=O)O)C(C(=N)O)=NC1N1CCN(Cc2ccccc2)CC1 (centres undefined) | 158 to 160 |
| CCc1ccc2c(CC(=O)O)c(C(=O)c3cc(C)ccn3)[nH]c2c1 | 204 to 207 |
| CCC12CCC3c4ccc(OC)cc4CCC3C1CC=C2OC(C)=O (centres undefined) | 105 to 106 |
| CC(C)Sc1nc(OS(C)(=O)=O)cs1 | 83 to 85 |
| CC(C)(C)C(=O)NC1CCC(c2cc(Nc3cccc(C(F)(F)F)c3)n[nH]2)C1 (centres undefined) | 249 |
| CCOC(=O)c1nc(-c2ccc(OC)cc2)ns1 | 61 to 63 |
| O=Cc1cccc(Cl)c1SCc1ccccc1 | 65 to 68 |
| CC(C)NC(COc1ccccc1C(=O)Nc1cccc2[nH]ccc12)NC(C)C | 180 |
| CCCCCc1cccc2c1NC(=O)C2=O | 119 to 121 |
| O=C1C=CC(=O)N1CCCCCCN1C(=O)C=CC1=O | 136 to 139 |
| CC(C)(O)c1nnc(-c2ccc3occ(-c4cc(F)ccc4F)c3c2)o1 | 155 to 156 |
| CCCc1c(OCC(O)COc2cccc(N)c2)ccc(C(C)=O)c1O (centres undefined) | 85 to 89 |
| Cc1nc2ncnn2c(C2CCCCC2)c1-c1c(F)cc(OCCCN(C)C)cc1F | 95 to 97 |
| CC(c1oc2ccccc2c(=O)c1-c1ccccc1)n1nc(C#CC(C)(C)O)c2c(N)ncnc21 (centres undefined) | 109 to 113 |
| Cc1ccc(NC(=S)NCCCO)c(C)c1 | 90 to 93 |

| SMILES | melting point [°C] |
| --- | --- |
| N#CCCCCCCNCc1ccc(O)cc1 | 42 to 44.5 |
| Cc1ccc(C(=O)Nc2ccc3ccc(Cl)nc3n2)cc1 | 228 |
| COc1ccc2[nH]c(S(=O)Cc3cc(N4CCCCC4)c(Br)cn3)nc2c1 (centres undefined) | 114 to 118 |
| O=C1c2ccccc2SCN1CCO[N+](=O)[O-] | 68 to 69 |
| O=C(O)C(=O)c1ccc(OCCOc2ccc3c(c2)CCCC3)cc1 | 144 to 145 |
| CCC(=Cc1cn(CC(=O)N(C)CCc2ccccc2)c2cccc(OCc3ccccc3)c12)C(=O)O | 170 to 174 |
| CCCc1cc(C(O)(CC)CC)ccc1-c1cc(OCc2ccc(CO)c(CO)c2)ccc1C | 97 |
| CCOC1=NS(=O)(=O)C(C(=O)OCc2ccccc2)=C1N | 144 to 147 |
| CCc1c(C)[nH]c(=O)n(-c2cc(C(=O)OC(C)C)c(Cl)cc2F)c1=O | 176 to 178 |
| COC(=O)c1c(Cc2ccc(C(=O)N(C)C)nc2)c(=O)c2ccc(C)nc2n1-c1ccccc1 | 235 to 236 |
| CN1CCN(c2ccc(C(=O)NCCCCCCCCCCCO[N+](=O)[O-])cn2)CC1 | 95 to 96 |
| COC(=O)/C(=C/c1ccc(OCCN(C)c2nc3ccccc3o2)cc1)OCC(=O)O | 111 to 112 |
| Clc1ccc([C@@H]2CNc3c(ccc4ccccc34)S2)cc1 | 205 to 206 |
| Cc1oc(-c2ccco2)nc1COc1ccc(COc2nn(Cc3ccccc3)cc2C(=O)O)cc1 | 170 to 171 |
| COc1ccc(-c2nn(Cc3ccncc3)c(=O)cc2-c2ccncc2)cc1 | 193 to 194 |
| O=C(NN1CCCCC1)C1=NN(c2ccc(Cl)cc2Cl)C(c2ccccc2)C1 (centres undefined) | 160 to 164 |
| NC(N)=Nc1nc(-c2cccc(N)n2)cs1 | 242 |
| CN(C)CCNC(=O)c1cc(Cl)c(N)cc1O | 163 to 165 |
| CCOC(=O)c1ccc(OC(=O)CCCCC(=O)Oc2ccc(C(=O)OCC)cc2)cc1 | 82 to 83 |
| O=c1[nH]nc2n1-c1ccc(Cl)nc1C(c1ccccc1)=[N+]([O-])C2 | 268 to 270 |
| CCC1c2ccc(C#N)n2-c2ccc(F)cc2N1S(=O)(=O)c1ccc(O)cc1 (centres undefined) | 169 to 171 |
| O=C1c2ccccc2N(N2CCCCC2)C2=NCCN12 | 229 to 231 |
| N#Cc1c(N2CCCCC2)cc(-c2ccc(F)cc2)c2c1Cc1ccccc1-2 | 130 to 132 |
| CCOC(=O)C(O)=Cc1cc(CCc2ccccc2)cnn1 | 94 to 95 |
| CCOC(=O)C(C)(C)Oc1ccc(-c2ccc(CCNC(=O)c3ccccc3)cc2)cc1 | 100 |

| SMILES | melting point [°C] |
| --- | --- |
| CC1(C)SC(=O)N(Cc2ccccc2[N+](=O)[O-])C1=O | 72.3 to 73.2 |
| O=C(CCCCCCC(=O)c1ccc(F)cc1)c1ccc(F)cc1 | 123 to 124 |
| COc1cc(Cn2cc3c(CC(C)C)nn(C)c(=O)c3c2)cc(OC)c1OC | 154 to 155 |
| CN1Cc2csc(=S)n2-c2ccc(F)c(F)c21 | 165 to 167 |
| CC(C)(Cc1ccc(Cl)cc1Cl)C(=O)Cn1cncn1 | 85 |
| CSc1cc2cc(-c3ccccc3)ccc2cc1O | 129 to 130 |
| C=CCOc1ccc2cc(C(=O)OCC)[nH]c2c1 | 89 to 91 |
| CCCn1c(=O)c2[nH]c(CC(C)c3ccc(OCc4ccccc4)cc3)nc2n(CCC)c1=O (centres undefined) | 124 to 126 |
| O=c1ccc(-c2nc3ccccc3s2)cn1Cc1ccc(Cl)c(F)c1 | 164 |
| Cc1ccc2c(c1)CC(=O)c1cc(C(C)C(=O)O)ccc1O2 (centres undefined) | 128 to 129 |
| COc1ccc(CCN(C)CCc2ccc(NC(=O)c3cccc4c(=O)c5ccccc5sc34)cc2)cc1OC | 154 |
| O=C1c2c(O)cccc2C(SCCO)c2cccc(O)c21 | 146 to 147 |
| C[C@@H](OC(=O)N1C(C)(C)COC1(C)C)C(C)(C)O | 53 |
| COc1cc2c(c3c1OC(C)(C)C3)C(c1cccc(N3CCN(CC(N)=O)S3(=O)=O)c1)=NC(C)(C)C2 | 206 to 208 |
| Cc1nc2c(O)c(CCC(=O)c3ccccc3)c(C(=O)N(C)C)cc2n1COCC[Si](C)(C)C | 192 to 194 |
| COc1cc(N(C)C)c(Cl)cc1C(=O)NC1CCN(Cc2ccccc2)C1 (centres undefined) | 85 to 86 |
| CSCC12CCC(O)C=C1CCC1C2CCC2(C)C(O)CCC12 (centres undefined) | 85 to 87 |
| CNC(=O)n1ccc(O)cc1=O | 268 |
| Cn1c2ccccc2c2nc3c(CO)cccc3nc21 | 191 to 194 |
| COC(=O)c1ccc(=O)[nH]c1 | 166 to 172 |
| CC1(C)CC(=O)Nc2ccc(-c3cccc(F)c3)cc21 | 190 to 192 |
| Cc1nc(-n2ccc3c(O)cccc3c2=O)sc1C(=O)NCc1ccccc1 | 218 to 221 |
| COc1cc2c(cc1OC)CN(CCCOc1ccc(NC(=O)c3cccc4c(=O)c5cccc(OC)c5[nH]c34)c(C)c1)CC2 | 160 |
| CN(C1CC(C)(C)Oc2ccc(OCc3ccccc3)cc21)S(C)(=O)=O (centres undefined) | 114 to 116 |
